Legend:
[1] = molecular target: T1, A3 (h) (Homo sapiens, UniProt P0DMS8); assay: Receptor binding screen, [^125I]AB-MECA; conditions: 10 uM Concentration of Compound I-1-Z; read-out: Mean Value, percent inhibition of control specific binding: A3 (h)
T1 construct: expressed in transfected cells; host or cells: HEK-293 cells

[2] = molecular target: T2, rat lung SSAO (Rattus norvegicus, UniProt O08590); assay: ED50 for rat lung SSAO after oral administration; format: in vivo, Sprague Dawley rats; conditions: lungs excised 1, 3, 6 or 24 h later, FIG. 11, read-out: ED50 for inhibition of rat lung SSAO activity
T2 construct: rat lung or human umbilical cord homogenates were prepared by chopping the freshly removed tissue; from tissue; host or cells: rat lung homogenate (1000 g supernatant)
Method: Groups of five Sprague Dawley rats were orally administered the indicated doses of compound I-1-Z. At 1, 3, 6 or 24 h later, the animals were sacrificed, lungs excised and SSAO activity in lung homogenates determined. Results are presented as percent inhibition of SSAO activity relative to animals that were administered PBS.

[3] = molecular target: T3, M5 (h) (Homo sapiens, UniProt P08912); assay: Receptor binding screen, [^3H]4-DAMP; conditions: 10 uM Concentration of Compound I-1-Z; read-out: Mean Value, percent inhibition of control specific binding: M5 (h)
T3 construct: expressed in transfected cells; host or cells: CHO cells
T3 sequence (P08912 whole entry): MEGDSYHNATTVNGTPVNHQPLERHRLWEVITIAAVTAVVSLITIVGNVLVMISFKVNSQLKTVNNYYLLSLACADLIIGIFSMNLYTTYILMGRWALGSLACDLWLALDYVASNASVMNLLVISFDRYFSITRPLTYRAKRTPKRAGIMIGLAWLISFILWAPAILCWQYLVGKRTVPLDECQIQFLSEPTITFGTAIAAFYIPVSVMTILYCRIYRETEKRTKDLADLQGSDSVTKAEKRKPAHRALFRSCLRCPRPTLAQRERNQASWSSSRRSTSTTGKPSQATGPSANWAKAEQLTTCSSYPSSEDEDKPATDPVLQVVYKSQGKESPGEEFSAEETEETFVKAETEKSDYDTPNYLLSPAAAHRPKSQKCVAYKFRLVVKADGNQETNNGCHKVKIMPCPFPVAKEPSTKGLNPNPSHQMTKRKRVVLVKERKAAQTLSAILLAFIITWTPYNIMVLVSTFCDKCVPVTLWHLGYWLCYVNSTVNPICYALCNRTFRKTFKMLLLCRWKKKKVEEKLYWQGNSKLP

[4] = molecular target: T4, GAL2 (h) (Homo sapiens, UniProt O43603); assay: Receptor binding screen, [^125I]galanin; conditions: 10 uM Concentration of Compound I-1-Z; read-out: Mean Value, percent inhibition of control specific binding: GAL2 (h)
T4 construct: expressed in transfected cells; host or cells: CHO cells
T4 sequence (O43603 whole entry): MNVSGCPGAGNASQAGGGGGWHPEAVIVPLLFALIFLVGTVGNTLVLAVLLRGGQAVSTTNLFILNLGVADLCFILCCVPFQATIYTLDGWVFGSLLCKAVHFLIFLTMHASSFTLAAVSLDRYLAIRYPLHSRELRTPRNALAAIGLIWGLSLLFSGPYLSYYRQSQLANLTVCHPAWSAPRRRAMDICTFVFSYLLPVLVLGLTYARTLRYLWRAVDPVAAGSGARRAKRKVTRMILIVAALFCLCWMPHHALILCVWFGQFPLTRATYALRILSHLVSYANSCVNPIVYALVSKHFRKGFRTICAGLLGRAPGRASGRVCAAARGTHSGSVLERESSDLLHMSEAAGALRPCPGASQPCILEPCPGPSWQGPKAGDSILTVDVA

[5] = molecular target: T5, 5-HT1B (Rattus norvegicus, UniProt P28564); assay: Receptor binding screen, [^125I]CYP; conditions: probe [125I]CYP (radioligand), 10 uM Concentration of Compound I-1-Z, read-out: Mean Value, percent inhibition of control specific binding: 5-HT1B
T5 construct: rat cerebral cortex; from tissue; host or cells: rat cerebral cortex
T5 sequence (P28564 whole entry): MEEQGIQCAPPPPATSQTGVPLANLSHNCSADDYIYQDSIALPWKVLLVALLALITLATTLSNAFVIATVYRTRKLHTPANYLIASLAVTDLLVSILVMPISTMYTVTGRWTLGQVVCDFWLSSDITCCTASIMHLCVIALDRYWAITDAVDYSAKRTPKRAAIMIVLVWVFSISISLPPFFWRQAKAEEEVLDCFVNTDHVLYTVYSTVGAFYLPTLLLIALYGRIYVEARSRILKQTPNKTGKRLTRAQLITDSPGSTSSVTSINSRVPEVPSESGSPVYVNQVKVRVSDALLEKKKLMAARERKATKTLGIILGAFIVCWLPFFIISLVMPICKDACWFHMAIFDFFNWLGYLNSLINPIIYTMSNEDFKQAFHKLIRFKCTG

[6] = molecular target: T6, Rat SSAO (Rattus norvegicus, UniProt O08590); assay: In vitro inhibition of SSAO activity, rat lung homogenate, 14C-benzylamine; format: biochemical
T6 construct: rat lung or human umbilical cord homogenates were prepared by chopping the freshly removed tissue; from tissue; host or cells: rat lung homogenate (1000 g supernatant)
T6 sequence (O08590 1-763): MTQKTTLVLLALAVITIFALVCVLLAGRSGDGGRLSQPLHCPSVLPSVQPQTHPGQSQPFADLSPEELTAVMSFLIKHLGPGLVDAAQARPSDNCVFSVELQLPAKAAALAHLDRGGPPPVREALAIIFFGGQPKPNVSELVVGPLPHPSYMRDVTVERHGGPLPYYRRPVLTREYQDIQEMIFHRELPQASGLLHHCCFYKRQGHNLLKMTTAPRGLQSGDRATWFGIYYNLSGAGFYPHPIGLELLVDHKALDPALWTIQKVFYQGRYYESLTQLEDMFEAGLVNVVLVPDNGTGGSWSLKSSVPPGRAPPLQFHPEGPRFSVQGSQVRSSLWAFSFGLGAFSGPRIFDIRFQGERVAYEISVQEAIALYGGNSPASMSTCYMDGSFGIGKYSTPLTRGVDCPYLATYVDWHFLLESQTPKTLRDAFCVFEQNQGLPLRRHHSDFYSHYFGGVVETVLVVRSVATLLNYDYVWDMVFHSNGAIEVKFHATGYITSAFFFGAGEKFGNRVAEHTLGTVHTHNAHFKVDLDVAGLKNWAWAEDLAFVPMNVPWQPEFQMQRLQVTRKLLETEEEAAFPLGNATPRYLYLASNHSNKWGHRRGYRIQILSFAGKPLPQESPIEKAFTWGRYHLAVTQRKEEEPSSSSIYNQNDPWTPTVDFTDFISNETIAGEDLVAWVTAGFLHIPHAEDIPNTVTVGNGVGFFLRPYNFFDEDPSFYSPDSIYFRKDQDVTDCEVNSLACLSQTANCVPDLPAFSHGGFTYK
Method: SSAO activity was measured as described (Lizcano J M. Et al. (1998) Biochem J. 331:69). Briefly, rat lung or human umbilical cord homogenates were prepared by chopping the freshly removed tissue into small pieces and washing them thoroughly in PBS. The tissue was then homogenized 1:10 (w/v) for lung or 1:5 (w/v) for umbilical cord, in 10 mM potassium phosphate buffer (pH 7.8). Homogenates were then centrifuged at 1000 g at 4° C. for 10 min (lung) or 25,000 g for 30 min (umbilical cord); the supernatants were kept frozen until ready to use. Lung or umbilical cord homogenate was preincubated with clorgyline and pargyline at 1 μM to inhibit MAO-A and -B activity, respectively, and SSAO inhibitors were generally present at 1 nM-10 μM. The reaction was initiated by addition of 20 μM ^14C— benzylamine as substrate. The reaction was carried out at 37° C. in a final volume of 400 μL of 100 mM potassium phosphate buffer (pH 7.2) and stopped with 100 μl of 2M citric acid. Radioactively labeled products were extracted into toluene/ethyl acetate (1:1, v/v) containing 0.6% (w/v) 2,5-diphenyloxazole (PPO) before liquid scintillation counting.

[7] = system: P2X; assay: Receptor binding screen, [^3H]α,β-MeATP, rat urinary bladder; conditions: 10 uM Concentration of Compound I-1-Z
[8] = molecular target: T7, BZD (peripheral) (Rattus norvegicus, UniProt P16257); assay: Receptor binding screen, [^3H]PK 11195; conditions: 10 uM Concentration of Compound I-1-Z; read-out: Mean Value, percent inhibition of control specific binding: BZD (peripheral)
T7 construct: rat heart; from tissue; host or cells: rat heart

[9] = molecular target: T8, CCKB (h) (CCK2) (Homo sapiens, UniProt P32239); assay: Receptor binding screen, [^125I]CCK-8; conditions: 10 uM Concentration of Compound I-1-Z; read-out: Mean Value, percent inhibition of control specific binding: CCKB (h) (CCK2)
T8 construct: expressed in transfected cells; host or cells: CHO cells
T8 sequence (P32239 whole entry): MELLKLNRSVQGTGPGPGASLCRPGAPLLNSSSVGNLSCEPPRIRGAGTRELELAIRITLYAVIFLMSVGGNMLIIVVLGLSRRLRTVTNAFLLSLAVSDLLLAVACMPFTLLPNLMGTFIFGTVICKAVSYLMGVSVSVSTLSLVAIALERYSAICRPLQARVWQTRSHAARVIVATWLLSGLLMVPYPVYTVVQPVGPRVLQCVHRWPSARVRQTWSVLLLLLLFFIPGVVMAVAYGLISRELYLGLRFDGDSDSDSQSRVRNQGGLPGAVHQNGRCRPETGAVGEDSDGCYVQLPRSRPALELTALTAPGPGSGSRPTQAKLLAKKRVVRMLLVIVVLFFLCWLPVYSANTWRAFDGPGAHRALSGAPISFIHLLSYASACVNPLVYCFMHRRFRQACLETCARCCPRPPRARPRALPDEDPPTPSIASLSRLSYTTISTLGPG

[10] = system: GABA (non-selective); assay: Receptor binding screen, [^3H]GABA; parameters: species or system rat; conditions: 10 uM Concentration of Compound I-1-Z
Method: For Table 4 below, the specific ligand binding to the receptors is defined as the difference between the total binding and the nonspecific binding determined in the presence of an excess of unlabelled ligand. The results are expressed as a percent inhibition of control specific binding obtained in the presence of Compound I-1-Z. The IC50 values (concentration causing a half-maximal inhibition of control specific binding) and Hill coefficients (nH) were determined by non-linear regression analysis of the competition curves using Hill equation curve fitting. The inhibition constants (Ki) were calculated from the Cheng Prusoff equation (Ki=IC50/(1+(L/KD)), where L=concentration of radioligand in the assay, and KD=affinity of the radioligand for the receptor). In each experiment, the respective reference compound was tested concurrently with Compound I-1-Z in order to assess the assay suitability.

[11] = molecular target: T9, M4 (h) (Homo sapiens, UniProt P08173); assay: Receptor binding screen, [^3H]4-DAMP; conditions: 10 uM Concentration of Compound I-1-Z; read-out: Mean Value, percent inhibition of control specific binding: M4 (h)
T9 construct: expressed in transfected cells; host or cells: CHO cells
T9 sequence (P08173 whole entry): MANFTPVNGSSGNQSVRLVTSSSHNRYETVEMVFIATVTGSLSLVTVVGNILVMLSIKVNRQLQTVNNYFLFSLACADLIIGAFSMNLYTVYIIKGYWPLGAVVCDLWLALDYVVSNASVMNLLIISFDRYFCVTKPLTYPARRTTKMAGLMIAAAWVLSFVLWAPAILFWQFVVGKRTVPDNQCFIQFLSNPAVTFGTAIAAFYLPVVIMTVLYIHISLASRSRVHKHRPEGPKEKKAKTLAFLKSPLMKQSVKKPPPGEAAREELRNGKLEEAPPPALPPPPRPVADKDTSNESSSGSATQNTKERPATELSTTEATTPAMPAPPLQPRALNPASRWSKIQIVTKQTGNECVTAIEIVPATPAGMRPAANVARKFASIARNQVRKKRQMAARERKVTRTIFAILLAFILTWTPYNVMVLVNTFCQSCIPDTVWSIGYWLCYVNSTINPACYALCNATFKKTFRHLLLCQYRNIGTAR

T1 sequence (P0DMS8 whole entry): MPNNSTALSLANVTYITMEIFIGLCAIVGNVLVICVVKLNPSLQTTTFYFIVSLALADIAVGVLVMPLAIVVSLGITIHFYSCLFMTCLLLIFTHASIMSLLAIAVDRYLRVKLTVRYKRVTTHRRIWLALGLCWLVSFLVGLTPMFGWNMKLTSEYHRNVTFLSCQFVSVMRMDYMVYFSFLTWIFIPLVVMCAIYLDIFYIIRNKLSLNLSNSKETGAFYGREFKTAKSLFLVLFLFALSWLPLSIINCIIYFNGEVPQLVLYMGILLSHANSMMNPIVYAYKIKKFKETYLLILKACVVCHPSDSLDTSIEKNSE

In the case of `COc1ccc(C/C(=C/F)CN)cc1.Cl` [Compound I-1-Z, (Z)-3-Fluoro-2-(4-methoxybenzyl)-allylamine hydrochloride], the inhibition at 10 µM [1] is reported as 1%, the ED50 [2] is reported as 0.1 to 1 mg/kg and the inhibition at 10 µM [3] is reported as 27%. It also gave an inhibition at 10 µM [4] of 12%, an inhibition at 10 µM [5] of 16% and an IC50 [6] of 13 nM. The “Mean Value, percent inhibition of control specific binding: P2X” value [7] was −2%, the inhibition at 10 µM [8] was -6% and the inhibition at 10 µM [9] was -5%. The “Mean Value, percent inhibition of control specific binding: GABA (non-selective)” value [10] was −19% and the inhibition at 10 µM [11] was 22%.

Compound `CCOc1ccc(C/C(=C\F)CN)cc1.Cl` [Compound I-2-E, (E)-3-Fluoro-2-(4-ethoxybenzyl)-allylamine hydrochloride] has an IC50 [6] of 8 nM.

`CCOc1ccc(C/C(=C/F)CN)cc1.Cl` [Compound I-2-Z, (Z)-3-Fluoro-2-(4-ethoxybenzyl)-allylamine hydrochloride] was tested, and the IC50 [6] was 5 nM.

`NC/C(F)=C\Cc1cc(F)cc(C(F)(F)F)c1` [II-1-E, (E)-2-Fluoro-4-(3-fluoro-5-trifluoromethylphenyl)-but-2-enylamine] was tested, and the IC50 [6] was 38 nM.
